Test results published in PubChem BioAssay AID2060615 (Molecular Pharmacology Branch, DTP, NCI, 2025).

Test system: 496974-208-R-J2-PDC complex spheroids, growth % test/control
Assay: Anticancer human tumor 496974-208-R-J2-PDC patient-derived pancreatic carcinoma cell line growth inhibition [CLK]
Conditions: for IC50: curve of first compound; for viability, T/C: stronger effect = lower value
Outline: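 Patient-derived tumor cells grown as complex spheroids with HUVEC endothelial cells and mesenchymal stem cells, treated with drug combinations. Concentrations descend in half-log steps from near clinical Cmax, or from 10 microM if Cmax unknown.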

[1] = second compound 0.0316 µM, first compound 0.0316 µM
[2] = second compound 0.0316 µM, first compound 0.1 µM
[3] = second compound 0.0316 µM, first compound 0.316 µM
[4] = second compound 0.0316 µM, first compound 1 µM
[5] = second compound 0.1 µM, first compound 0.0316 µM
[6] = second compound 0.1 µM, first compound 0.1 µM
[7] = second compound 0.1 µM, first compound 0.316 µM
[8] = second compound 0.1 µM, first compound 1 µM
[9] = second compound 0.316 µM, first compound 0.0316 µM
[10] = second compound 0.316 µM, first compound 0.1 µM
[11] = second compound 0.316 µM, first compound 0.316 µM
[12] = second compound 0.316 µM, first compound 1 µM
[13] = second compound 1 µM, first compound 0.0316 µM
[14] = second compound 1 µM, first compound 0.1 µM
[15] = second compound 1 µM, first compound 0.316 µM
[16] = second compound 1 µM, first compound 1 µM
[17] = second compound 3.16 µM, first compound 0.0316 µM
[18] = second compound 3.16 µM, first compound 0.1 µM
[19] = second compound 3.16 µM, first compound 0.316 µM
[20] = second compound 3.16 µM, first compound 1 µM
[21] = second compound 10 µM, first compound 0.0316 µM
[22] = second compound 10 µM, first compound 0.1 µM
[23] = second compound 10 µM, first compound 0.316 µM
[24] = second compound 10 µM, first compound 1 µM
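Further: spheroids exposed to the drugs for 7 days before readout.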
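Wherever viability, T/C is given: 100% = DMSO vehicle control wells.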

C=CC(=O)Nc1cc(Nc2nccc(-c3cn(C)c4ccccc34)n2)c(OC)cc1N(C)CCN(C)C + CN1CCN(c2cc(C(=O)Nc3cc4cc(-c5cnn(C)c5)ccc4cn3)ccn2)CC1
IC50 (second compound 0.0316 µM): > 300 nM | IC50 (second compound 0.1 µM): > 300 nM | IC50 (second compound 0.316 µM): < 0.949 nM | IC50 (second compound 1 µM): < 0.949 nM | IC50 (second compound 3.16 µM): < 0.949 nM | IC50 (second compound 10 µM): < 0.949 nM | viability, T/C (second compound 0.0316 µM, first compound 0.000949 µM): 104% | viability, T/C (second compound 0.0316 µM, first compound 0.003 µM): 100% | viability, T/C (second compound 0.0316 µM, first compound 0.00949 µM): 94.9% | viability, T/C (second compound 0.0316 µM, first compound 0.03 µM): 86.5% | viability, T/C (second compound 0.0316 µM, first compound 0.0949 µM): 85.7% | viability, T/C (second compound 0.0316 µM, first compound 0.3 µM): 60.6% | viability, T/C (second compound 0.1 µM, first compound 0.000949 µM): 77.1% | viability, T/C (second compound 0.1 µM, first compound 0.003 µM): 86.2% | viability, T/C (second compound 0.1 µM, first compound 0.00949 µM): 80.8% | viability, T/C (second compound 0.1 µM, first compound 0.03 µM): 74.3% | viability, T/C (second compound 0.1 µM, first compound 0.0949 µM): 70.8% | viability, T/C (second compound 0.1 µM, first compound 0.3 µM): 50% | viability, T/C (second compound 0.316 µM, first compound 0.000949 µM): 6.91% | viability, T/C (second compound 0.316 µM, first compound 0.003 µM): 7.98% | viability, T/C (second compound 0.316 µM, first compound 0.00949 µM): 5.85% | viability, T/C (second compound 0.316 µM, first compound 0.03 µM): 4.61% | viability, T/C (second compound 0.316 µM, first compound 0.0949 µM): 6.12% | viability, T/C (second compound 0.316 µM, first compound 0.3 µM): 4.42% | viability, T/C (second compound 1 µM, first compound 0.000949 µM): 0.32% | viability, T/C (second compound 1 µM, first compound 0.003 µM): 0.55% | viability, T/C (second compound 1 µM, first compound 0.00949 µM): 1.29% | viability, T/C (second compound 1 µM, first compound 0.03 µM): 0.51% | viability, T/C (second compound 1 µM, first compound 0.0949 µM): 2.8% | viability, T/C (second compound 1 µM, first compound 0.3 µM): 0.65% | viability, T/C (second compound 3.16 µM, first compound 0.000949 µM): 0.42% | viability, T/C (second compound 3.16 µM, first compound 0.003 µM): 1.96% | viability, T/C (second compound 3.16 µM, first compound 0.00949 µM): 1.14% | viability, T/C (second compound 3.16 µM, first compound 0.03 µM): 0.42% | viability, T/C (second compound 3.16 µM, first compound 0.0949 µM): 2.24% | viability, T/C (second compound 3.16 µM, first compound 0.3 µM): 1.33% | viability, T/C (second compound 10 µM, first compound 0.000949 µM): 0.31% | viability, T/C (second compound 10 µM, first compound 0.003 µM): 0.31% | viability, T/C (second compound 10 µM, first compound 0.00949 µM): 0.31% | viability, T/C (second compound 10 µM, first compound 0.03 µM): 0.85% | viability, T/C (second compound 10 µM, first compound 0.0949 µM): 2.25% | viability, T/C (second compound 10 µM, first compound 0.3 µM): 2.99%

CCN1CCN(Cc2ccc(Nc3ncc(F)c(-c4cc(F)c5nc(C)n(C(C)C)c5c4)n3)nc2)CC1 + CN1CCN(c2cc(C(=O)Nc3cc4cc(-c5cnn(C)c5)ccc4cn3)ccn2)CC1
IC50 (second compound 0.0316 µM): > 1000 nM | IC50 (second compound 0.1 µM): > 1000 nM | IC50 (second compound 0.316 µM): < 3.16 nM | IC50 (second compound 1 µM): < 3.16 nM | IC50 (second compound 3.16 µM): < 3.16 nM | IC50 (second compound 10 µM): < 3.16 nM | viability, T/C (second compound 0.0316 µM, first compound 0.00316 µM): 90.4% | viability, T/C (second compound 0.0316 µM, first compound 0.01 µM): 87.9% | viability, T/C [1]: 78.6% | viability, T/C [2]: 81% | viability, T/C [3]: 76.2% | viability, T/C [4]: 87.7% | viability, T/C (second compound 0.1 µM, first compound 0.00316 µM): 79.5% | viability, T/C (second compound 0.1 µM, first compound 0.01 µM): 73% | viability, T/C [5]: 72.8% | viability, T/C [6]: 72.9% | viability, T/C [7]: 68.2% | viability, T/C [8]: 70.6% | viability, T/C (second compound 0.316 µM, first compound 0.00316 µM): 6.01% | viability, T/C (second compound 0.316 µM, first compound 0.01 µM): 10.2% | viability, T/C [9]: 8.8% | viability, T/C [10]: 11.3% | viability, T/C [11]: 13.7% | viability, T/C [12]: 9.83% | viability, T/C (second compound 1 µM, first compound 0.00316 µM): 0.34% | viability, T/C (second compound 1 µM, first compound 0.01 µM): 0.41% | viability, T/C [13]: 0.41% | viability, T/C [14]: 0.39% | viability, T/C [15]: 0.77% | viability, T/C [16]: 2.79% | viability, T/C (second compound 3.16 µM, first compound 0.00316 µM): 0.34% | viability, T/C (second compound 3.16 µM, first compound 0.01 µM): 1.89% | viability, T/C [17]: 1.33% | viability, T/C [18]: 0.51% | viability, T/C [19]: 1.22% | viability, T/C [20]: 4.6% | viability, T/C (second compound 10 µM, first compound 0.00316 µM): 0.22% | viability, T/C (second compound 10 µM, first compound 0.01 µM): 0.34% | viability, T/C [21]: 0.36% | viability, T/C [22]: 0.29% | viability, T/C [23]: 1.36% | viability, T/C [24]: 2.46%

Nc1ccccc1NC(=O)c1ccc(CNC(=O)OCc2cccnc2)cc1 + CN1CCN(c2cc(C(=O)Nc3cc4cc(-c5cnn(C)c5)ccc4cn3)ccn2)CC1
IC50 (second compound 0.0316 µM): 4300 nM | IC50 (second compound 0.1 µM): 4370 nM | IC50 (second compound 0.316 µM): < 31.6 nM | IC50 (second compound 1 µM): < 31.6 nM | IC50 (second compound 3.16 µM): < 31.6 nM | IC50 (second compound 10 µM): < 31.6 nM | viability, T/C [1]: 105% | viability, T/C [2]: 101% | viability, T/C [3]: 94.3% | viability, T/C [4]: 81.4% | viability, T/C (second compound 0.0316 µM, first compound 3.16 µM): 73.2% | viability, T/C (second compound 0.0316 µM, first compound 10 µM): 0.89% | viability, T/C [5]: 77.5% | viability, T/C [6]: 78.9% | viability, T/C [7]: 80.3% | viability, T/C [8]: 69.2% | viability, T/C (second compound 0.1 µM, first compound 3.16 µM): 69.4% | viability, T/C (second compound 0.1 µM, first compound 10 µM): 0.6% | viability, T/C [9]: 6.28% | viability, T/C [10]: 4.96% | viability, T/C [11]: 4.64% | viability, T/C [12]: 3.64% | viability, T/C (second compound 0.316 µM, first compound 3.16 µM): 2.12% | viability, T/C (second compound 0.316 µM, first compound 10 µM): 0.13% | viability, T/C [13]: 0.53% | viability, T/C [14]: 0.32% | viability, T/C [15]: 0.35% | viability, T/C [16]: 0.18% | viability, T/C (second compound 1 µM, first compound 3.16 µM): 0.21% | viability, T/C (second compound 1 µM, first compound 10 µM): 0.21% | viability, T/C [17]: 0.5% | viability, T/C [18]: 0.4% | viability, T/C [19]: 0.39% | viability, T/C [20]: 0.21% | viability, T/C (second compound 3.16 µM, first compound 3.16 µM): 0.2% | viability, T/C (second compound 3.16 µM, first compound 10 µM): 1.32% | viability, T/C [21]: 0.22% | viability, T/C [22]: 0.23% | viability, T/C [23]: 0.27% | viability, T/C [24]: 0.22% | viability, T/C (second compound 10 µM, first compound 3.16 µM): 0.24% | viability, T/C (second compound 10 µM, first compound 10 µM): 1.53%
